In patent publication US8158621B2, “Methods of treating or preventing autoimmune diseases with 2,4-pyrimidinediamine compounds” (Rigel Pharmaceuticals, Inc., priority 2002, dated 2012):
pIC50: −log10 of the molar value.

tested on: Human Jurkat T-cells (clone N); experiment: Jurkat T-cell activation (anti-TCR, CD69 upregulation); assay type: cell-based; conditions: not given
Procedure, shortened: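 Jurkat cells in RPMI + 5% FBS preincubated with compound 1 h at 37 °C, then stimulated with anti-TCR C305 at 500 ng/ml for 20 h. CD69 surface expression stained with anti-CD69-APC and read by flow cytometry; IC50 versus solvent-only control.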

Row | Structure (SMILES) | pIC50
1 | OCCNc1cccc(Nc2ncc(F)c(Nc3ccc4c(c3)OCCO4)n2)c1 [Compound R950208] | 5.75
2 | FC(F)(F)c1cnc(Nc2ccc3c(c2)OCCO3)nc1Nc1ccc2c(c1)OCCO2 [Compound R920669] | 4.70
3 | OB(O)c1cccc(Nc2ncc(F)c(Nc3cccc(B(O)O)c3)n2)c1 [Compound R926836] | 4.84
4 | CCOC(=O)c1cnc(Nc2ccc(OCC(=O)OC)cc2)nc1Nc1ccc(OCC(=O)OC)cc1 [Compound R926253] | < 5.00
5 | CNC(=O)Cn1ncc2ccc(Nc3nc(Nc4ccc(OC(C)C)cc4)ncc3F)cc21 [Compound R935224] | < 5.00
6 | COC(=O)Cn1ncc2cc(Nc3nc(Nc4ccc5c(c4)OCCO5)ncc3F)ccc21 [Compound R935249] | 5.32
7 | NCCNC(=O)c1cc2cc(Nc3ncc(F)c(Nc4ccc5oc(C(=O)NCCN)cc5c4)n3)ccc2o1 [Compound R950168] | 4.97
8 | O=C(c1cc2cc(Nc3ncc(F)c(Nc4ccc5c(c4)OCCO5)n3)ccc2o1)N1CCOCC1 [Compound R926492] | 5.48
9 | CCOc1ccc(Nc2nc(Nc3cccc(OCC(=O)NC)c3)ncc2F)cc1 [Compound R926827] | 5.67
10 | O=[N+]([O-])c1cccc(Nc2nc(Nc3ccc4c(c3)NCCO4)ncc2F)c1 [Compound R950253] | 4.98
11 | CNC(=O)COc1cccc(Nc2ncc(F)c(Nc3ccc4c(c3)C(N=[N+]=[N-])CCO4)n2)c1 (stereo not shown) [Compound R950383] | 5.99
12 | CNC(=O)COc1cccc(Nc2ncc(F)c(Nc3ccc4c(c3)OCCO4)n2)c1 [Compound R926826] | 5.43
13 | Cc1cnc(Nc2ccc(OCc3nnnn3C)cc2)nc1Nc1cccc(O)c1 [Compound R920894] | 5.69
14 | CC(=NO)c1cccc(Nc2ncc(F)c(Nc3cccc(C(C)=NO)c3)n2)c1 [Compound R950379] | 6.06
15 | Cn1nnc(COc2ccc(Nc3nccc(Nc4cccc(O)c4)n3)cc2)n1 [Compound R920910] | 5.62
16 | C[C@H](Nc1ncc(F)c(N[C@@H](C)[C@H](O)c2ccccc2)n1)[C@H](O)c1ccccc1 [Compound R925767] | < 5.00
17 | CNC(=O)COc1cccc(Nc2nc(Nc3cc(OC)cc(OC)c3)ncc2F)c1 [Compound R926810] | 5.30
18 | CNC(=O)CCn1ncc2cc(Nc3ncc(F)c(Nc4cccc(O)c4)n3)ccc21 [Compound R935305] | 5.74
19 | COC(=O)COc1ccc(Nc2ncc(F)c(Nc3ccc4c(cnn4C)c3)n2)cc1 [Compound R935209] | < 5.00
20 | CCOC(=O)c1cnc(Nc2cccc(O)c2)nc1N[C@@H](Cc1ccccc1)C(=O)OCC [Compound R926528] | < 5.00
21 | Cn1nnnc1COc1ccc(Nc2ncc(F)c(Nc3cccc(O)c3)n2)cc1 [Compound R920861] | 5.48
22 | CC(C)(C)c1cccc(Nc2nc(Nc3ccc4oc(CO)cc4c3)ncc2F)c1 [Compound R940287] | 5.21

Row | Structure (SMILES) | pIC50
23 | COC(=O)c1cc2cc(Nc3nc(Nc4cccc(OCc5noc(C)n5)c4)ncc3F)ccc2o1 [Compound R945131] | 4.72
24 | COC(=O)c1cnc(Nc2ccc(OCC(=O)N3CCCC3)cc2)nc1Nc1ccc(OCC(=O)N2CCCC2)cc1 [Compound R926559] | 4.95
25 | CNC(=O)COc1cccc(Nc2ncc(F)c(Nc3ccc(C(F)(F)F)cc3)n2)c1 [Compound R926880] | 5.20
26 | CNC(=O)CCn1ncc2ccc(Nc3ncc(F)c(Nc4ccc(OC(C)C)cc4)n3)cc21 [Compound R935291] | 5.50
27 | CCOc1ccc(Nc2nc(Nc3ccc4c(c3)OCCO4)ncc2F)cc1 [Compound R920670] | 4.84
28 | CCOC(=O)c1cnc(Nc2ccc3cn[nH]c3c2)nc1Nc1ccc2cn[nH]c2c1 [Compound R926320] | < 5.00
29 | CNC(=O)COc1cccc(Nc2ncc(F)c(Nc3ccc4ncccc4c3)n2)c1 [Compound R926883] | < 5.00
30 | CNC(=O)COc1cccc(Nc2ncc(F)c(Nc3cccc(C(C)C)c3)n2)c1 [Compound R940288] | 5.46
31 | CCOC(=O)COc1cccc(Nc2ncc(F)c(Nc3ccc4c(c3)OCCN4)n2)c1 [Compound R909266] | 4.89
32 | Cc1nc(COc2cccc(Nc3nc(Nc4cccc(O)c4)ncc3F)c2)no1 [Compound R945132] | 4.69
33 | CC(C)(C)c1ccc(Nc2nc(Nc3cccc(OCCO)c3)ncc2F)cc1 [Compound R926728] | < 5.00
34 | CNC(=O)COc1cccc(Nc2ncc(F)c(Nc3ccc4[nH]ccc4c3)n2)c1 [Compound R926931] | 5.53
35 | COC(=O)c1cc(Nc2ncc(F)c(Nc3ccc(OC(C)C)cc3)n2)cn1C [Compound R935164] | 5.48
36 | O=C(NCCN1CCOCC1)c1cc2cc(Nc3ncc(F)c(Nc4ccc5oc(C(=O)NCCN6CCOCC6)cc5c4)n3)ccc2o1 [Compound R950173] | 5.04
37 | COCc1cc(=O)oc2cc(Nc3ncc(F)c(Nc4ccc5c(COC)cc(=O)oc5c4)n3)ccc12 [Compound R926620] | < 5.00
38 | CNC(=O)COc1cccc(Nc2ncc(F)c(Nc3cccc(B(O)O)c3)n2)c1 [Compound R926754] | 4.88
39 | CCOC(=O)COc1cccc(Nc2ncc(F)c(Nc3ccc4c(c3)OCCO4)n2)c1 [Compound R926482] | 5.08
40 | CC(C)(CO)c1ccc(Nc2ncc(F)c(Nc3cccc(O)c3)n2)cc1 [Compound R935171] | 5.41
41 | CCOC(=O)COc1cccc(Nc2nc(Nc3ccc4c(c3)OCCO4)ncc2F)c1 [Compound R926774] | 4.89
42 | COC(=O)COc1ccc(Nc2ncc(F)c(Nc3ccc(OCC(N)=O)cc3)n2)cc1 [Compound R945052] | < 5.00
43 | O=C(CNc1cccc(Nc2ncc(F)c(Nc3cccc(NCCO)c3)n2)c1)N1CCOCC1 [Compound R950236] | 5.01
44 | CCOC(=O)COc1ccc(Nc2ncc(Br)c(Nc3cccc(O)c3)n2)cc1 [Compound R926396] | 5.18

same assay, conditions: Homo sapiens

Row | Structure (SMILES) | pIC50
45 | Cc1ccc(Nc2ncc(F)c(Nc3ccc(C)c([N+](=O)[O-])c3)n2)cc1[N+](=O)[O-] [Compound R950144] | < 5.00

same assay, conditions: Homo sapiens, Jurkat

Row | Structure (SMILES) | pIC50
46 | CCc1ccc(Nc2ncc(F)c(Nc3ccc(CC)cc3)n2)cc1 [Compound R926234] | < 5.00
47 | Oc1cccc(Nc2ncc(-c3ccccc3)c(Nc3cccc(O)c3)n2)c1 [Compound R925783] | < 5.00
48 | COC(=O)c1cc2cc(Nc3ncc(F)c(Nc4cccc(N)c4)n3)ccc2o1 [Compound R950162] | 5.05
49 | COc1ccc(Nc2nc(NCCN3CCN(Cc4ccccc4)CC3)ncc2F)cc1OC [Compound R940262] | 5.19
50 | CCCNC(=O)c1cccc(Nc2ncc(F)c(Nc3cccc(O)c3)n2)c1 [Compound R926937] | < 5.00
51 | Nc1c(F)ccc(Nc2ccnc(Nc3ccc(F)c(N)c3F)n2)c1F [Compound R950131] | < 5.00
52 | COC(=O)c1cc(Nc2ncc(F)c(Nc3cccc(O)c3)n2)ccc1OC [Compound R940301] | 5.88
53 | Cc1cc(Nc2ncc(F)c(Nc3ccc4c(c3)OCCO4)n2)cc(C(F)(F)F)c1 [Compound R926895] | < 5.00
54 | Cc1ccc(F)c(Nc2ncc(F)c(Nc3ccc4c(c3)OCCO4)n2)c1 [Compound R926897] | < 5.00
55 | COC(=O)c1cc2cc(Nc3ncc(F)c(Nc4cccc(C(C)C)c4)n3)ccc2o1 [Compound R940283] | < 5.00
56 | Fc1cnc(Nc2ccc3c(c2)OCO3)nc1Nc1ccc2c(c1)OCO2 [Compound R925776] | 4.77
57 | COc1ccc(-c2ccccc2)cc1Nc1ncc(Br)c(Nc2cc(-c3ccccc3)ccc2OC)n1 [Compound R925799] | < 5.00
58 | Cc1cnc(Nc2ccccc2-c2ccccc2)nc1Nc1ccccc1-c1ccccc1 [Compound R926404] | < 5.00
59 | Fc1ccc(Nc2ncc(F)c(Nc3ccc(F)c(Cl)c3)n2)cc1Cl [Compound R926223] | < 5.00
60 | CCOC(=O)c1cc2cc(Nc3ncc(F)c(Nc4ccc5[nH]c(C(=O)OCC)cc5c4)n3)ccc2[nH]1 [Compound R926616] | 5.72
61 | O=C(O)c1ccc(Nc2ncc(F)c(Nc3ccc(C(=O)O)c(O)c3)n2)cc1O [Compound R945061] | < 5.00
62 | Oc1ccc(CCNc2ncc(Br)c(NCCc3ccc(O)cc3)n2)cc1 [Compound R925792] | 5.06

Row | Structure (SMILES) | pIC50
63 | Oc1cccc(Nc2nc(NCCc3c[nH]c4ccccc34)ncc2F)c1 [Compound R945117] | < 5.00
64 | Cc1ccc(CNc2ncc(F)c(Nc3ccc4c(c3)OCCO4)n2)cc1Cl [Compound R908696] | < 5.00
65 | COc1ccc(Nc2nc(Nc3cccc(O)c3)ncc2F)cc1OC [Compound R926147] | < 5.00
66 | CC(C)c1cccc(Nc2ncc(F)c(Nc3cccc(C(C)C)c3)n2)c1 [Compound R940297] | < 5.00
67 | CC(C)Oc1ccc(Nc2ncc(F)c(Nc3ccc(C(C)(C)CO)cc3)n2)cc1 [Compound R935168] | 5.43
68 | Oc1ccc(-c2cnc(Nc3ccc4c(c3)OCCO4)nc2Nc2ccc3c(c2)OCCO3)cc1 [Compound R925816] | 5.33
69 | Fc1cnc(NCc2ccccc2)nc1NCc1ccccc1 [Compound R925772] | < 5.00
70 | CC(C)(CO)c1ccc(Nc2ncc(F)c(Nc3cccc(O)c3)n2)cc1 [Compound R935153] | 5.15
71 | CCOc1ccc(Nc2ncc(F)c(Nc3ccc(OC)c(OC)c3)n2)cc1 [Compound R926145] | 4.75
72 | Oc1cccc(Nc2ncc(F)c(NC3c4ccccc4-c4ccccc43)n2)c1 [Compound R935020] | < 5.00
73 | O=C(NCCO)c1cc2cc(Nc3ncc(F)c(Nc4ccc5c(c4)OCCO5)n3)ccc2o1 [Compound R926498] | 5.24
74 | Oc1ccc(Nc2ncc(F)c(Nc3ccc(O)c(F)c3)n2)cc1F [Compound R926681] | 5.70
75 | CCOc1ccc(Nc2ncc(F)c(Nc3ccc4c(c3)OCCO4)n2)cc1 [Compound R926211] | 4.83
76 | Fc1cnc(Nc2ccc(SC(F)(F)F)cc2)nc1Nc1ccc2c(c1)OCCO2 [Compound R926899] | < 5.00
77 | Fc1cnc(Nc2ccc3c(c2)OC(F)(F)O3)nc1Nc1ccc2c(c1)OCCO2 [Compound R926386] | < 5.00
78 | Nc1cc(Nc2ccnc(Nc3ccc(Nc4ccccc4)c(N)c3)n2)ccc1Nc1ccccc1 [Compound R950123] | < 5.00
79 | O=C(O)c1cccc(Nc2ncc(F)c(Nc3cccc(C(=O)O)c3)n2)c1 [Compound R945036] | < 5.00
